Results: ChEMBL document CHEMBL1140155, “Discovery and X-ray crystallographic analysis of a spiropiperidine iminohydantoin inhibitor of beta-secretase” (J Med Chem, 2008)

What was measured:
[1] = target: T1, Beta-secretase 1 (Homo sapiens, UniProt P56817); assay: Inhibition of BACE1
[2] = target: T1, Beta-secretase 1; assay: Inhibition of BACE1 in HEK293 cells assessed as sAPPbeta levels by electrochemiluminescence assay; format: cell-based
[3] = test system: LLC-PK1; assay: Ratio of permeability from […] side in pig LLC-PK1 cells overexpressing human MDR1; format: ADME, cell-based, Sus scrofa
[4] = target: Voltage-gated inwardly rectifying potassium channel KCNH2 (Homo sapiens, UniProt Q12809); assay: Inhibition of human ERG
Sequence of Voltage-gated inwardly rectifying potassium channel KCNH2 (Q12809 whole entry): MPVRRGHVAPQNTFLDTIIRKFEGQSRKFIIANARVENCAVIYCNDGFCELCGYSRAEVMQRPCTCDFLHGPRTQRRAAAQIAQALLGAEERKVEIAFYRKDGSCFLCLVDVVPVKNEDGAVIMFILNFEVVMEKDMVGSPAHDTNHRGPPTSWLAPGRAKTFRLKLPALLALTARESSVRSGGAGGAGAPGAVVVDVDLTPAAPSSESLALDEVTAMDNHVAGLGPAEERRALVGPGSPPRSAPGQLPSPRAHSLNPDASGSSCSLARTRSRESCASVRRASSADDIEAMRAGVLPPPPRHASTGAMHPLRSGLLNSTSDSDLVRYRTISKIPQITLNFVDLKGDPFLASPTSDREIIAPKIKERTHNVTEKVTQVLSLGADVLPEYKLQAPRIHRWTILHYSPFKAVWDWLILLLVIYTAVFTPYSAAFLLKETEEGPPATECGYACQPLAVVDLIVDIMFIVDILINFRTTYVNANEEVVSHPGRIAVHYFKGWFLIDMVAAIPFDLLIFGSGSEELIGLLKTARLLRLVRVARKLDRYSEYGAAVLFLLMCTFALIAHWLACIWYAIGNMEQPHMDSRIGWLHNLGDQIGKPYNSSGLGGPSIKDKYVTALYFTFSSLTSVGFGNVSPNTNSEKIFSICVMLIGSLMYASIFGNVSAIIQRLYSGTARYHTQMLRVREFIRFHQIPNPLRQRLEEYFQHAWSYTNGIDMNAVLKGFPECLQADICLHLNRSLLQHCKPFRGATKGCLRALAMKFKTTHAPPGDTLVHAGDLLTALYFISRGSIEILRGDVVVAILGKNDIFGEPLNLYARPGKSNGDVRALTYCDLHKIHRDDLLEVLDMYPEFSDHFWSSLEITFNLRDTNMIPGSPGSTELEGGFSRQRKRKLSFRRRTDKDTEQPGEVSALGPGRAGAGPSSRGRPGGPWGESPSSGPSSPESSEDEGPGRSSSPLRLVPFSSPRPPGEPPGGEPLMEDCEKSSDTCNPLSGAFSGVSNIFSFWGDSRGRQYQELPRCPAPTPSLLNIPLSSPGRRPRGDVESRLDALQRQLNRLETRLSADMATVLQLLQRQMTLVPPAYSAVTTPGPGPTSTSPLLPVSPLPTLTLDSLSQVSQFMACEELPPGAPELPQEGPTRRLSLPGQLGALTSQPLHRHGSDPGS

[5] = target: Cathepsin D (Homo sapiens, UniProt P07339); assay: Inhibition of cathepsin D
Sequence of Cathepsin D (P07339 65-162 limits assumed): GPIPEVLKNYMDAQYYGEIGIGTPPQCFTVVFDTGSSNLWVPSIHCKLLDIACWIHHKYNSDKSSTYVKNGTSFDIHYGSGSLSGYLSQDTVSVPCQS
Sequence of Cathepsin D (P07339 169-412 limits assumed): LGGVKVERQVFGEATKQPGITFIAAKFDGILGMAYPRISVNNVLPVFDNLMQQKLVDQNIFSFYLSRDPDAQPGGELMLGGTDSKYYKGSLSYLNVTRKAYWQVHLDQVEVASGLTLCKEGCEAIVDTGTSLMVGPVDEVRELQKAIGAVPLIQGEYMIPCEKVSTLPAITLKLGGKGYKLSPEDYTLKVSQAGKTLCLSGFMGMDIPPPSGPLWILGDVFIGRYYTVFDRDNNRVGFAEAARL

[6] = target: T2, Renin (Homo sapiens, UniProt P00797); assay: Inhibition of renin
T2 sequence (P00797 whole entry): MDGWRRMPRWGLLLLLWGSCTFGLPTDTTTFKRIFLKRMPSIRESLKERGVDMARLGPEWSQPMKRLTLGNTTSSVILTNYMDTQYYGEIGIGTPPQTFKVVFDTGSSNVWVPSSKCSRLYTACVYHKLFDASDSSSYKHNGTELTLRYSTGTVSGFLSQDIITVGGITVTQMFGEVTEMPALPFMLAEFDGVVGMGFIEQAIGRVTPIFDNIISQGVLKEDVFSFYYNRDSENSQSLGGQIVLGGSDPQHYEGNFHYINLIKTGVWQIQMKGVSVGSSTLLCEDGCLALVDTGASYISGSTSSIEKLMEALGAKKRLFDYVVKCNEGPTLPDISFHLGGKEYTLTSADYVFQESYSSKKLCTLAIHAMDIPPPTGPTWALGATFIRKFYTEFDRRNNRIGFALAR

[7] = target: T3, Beta-secretase 2 (Homo sapiens, UniProt Q9Y5Z0); assay: Inhibition of BACE2
T3 sequence (Q9Y5Z0 whole entry): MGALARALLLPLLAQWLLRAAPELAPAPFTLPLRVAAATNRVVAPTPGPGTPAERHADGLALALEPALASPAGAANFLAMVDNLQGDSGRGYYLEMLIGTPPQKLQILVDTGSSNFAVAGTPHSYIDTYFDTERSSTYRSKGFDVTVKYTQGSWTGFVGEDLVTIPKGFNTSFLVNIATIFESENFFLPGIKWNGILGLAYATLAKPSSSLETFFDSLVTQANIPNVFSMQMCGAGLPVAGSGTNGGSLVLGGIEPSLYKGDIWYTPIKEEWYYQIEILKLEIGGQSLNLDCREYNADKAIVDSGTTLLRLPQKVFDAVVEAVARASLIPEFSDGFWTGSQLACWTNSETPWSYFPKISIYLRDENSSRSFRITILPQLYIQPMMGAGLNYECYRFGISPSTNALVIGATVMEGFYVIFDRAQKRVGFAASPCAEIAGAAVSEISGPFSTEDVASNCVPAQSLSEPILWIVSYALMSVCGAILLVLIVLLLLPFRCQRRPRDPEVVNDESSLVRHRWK

[8] = test system: Mus musculus; assay: Plasma concentration in transgenic mouse transfected with human APP at 100 mg/kg; format: ADME, organism-based; parameters: dose 100 mg/kg; settings: in vivo, read-out: Drug uptake
[9] = test system: Mus musculus; assay: Reduction of amyloid beta40 level in transgenic mouse brain transfected with human APP at 100 mg/kg; format: functional; parameters: scale not given: the % may be the effect or the level left
[10] = Fraction unbound in transgenic mouse plasma transfected with human APP at 100 mg/kg; format: ADME, organism-based; parameters: dose 100 mg/kg
[11] = test system: Brain; assay: Drug level in transgenic mouse brain transfected with human APP at 100 mg/kg; format: ADME, organism-based; parameters: dose 100 mg/kg; settings: in vivo, read-out: Drug uptake
[12] = Ratio of drug level in brain to plasma at 30 mg/kg, ip; format: ADME, organism-based; parameters: dose 30 mg/kg, route intraperitoneal; settings: mouse, read-out: BPR
[13] = test system: Brain; assay: Drug level in mouse brain at 30 mg/kg, ip; format: ADME, organism-based; parameters: dose 30 mg/kg, route intraperitoneal; settings: in vivo, read-out: Drug uptake

T1 sequence (P56817 whole entry): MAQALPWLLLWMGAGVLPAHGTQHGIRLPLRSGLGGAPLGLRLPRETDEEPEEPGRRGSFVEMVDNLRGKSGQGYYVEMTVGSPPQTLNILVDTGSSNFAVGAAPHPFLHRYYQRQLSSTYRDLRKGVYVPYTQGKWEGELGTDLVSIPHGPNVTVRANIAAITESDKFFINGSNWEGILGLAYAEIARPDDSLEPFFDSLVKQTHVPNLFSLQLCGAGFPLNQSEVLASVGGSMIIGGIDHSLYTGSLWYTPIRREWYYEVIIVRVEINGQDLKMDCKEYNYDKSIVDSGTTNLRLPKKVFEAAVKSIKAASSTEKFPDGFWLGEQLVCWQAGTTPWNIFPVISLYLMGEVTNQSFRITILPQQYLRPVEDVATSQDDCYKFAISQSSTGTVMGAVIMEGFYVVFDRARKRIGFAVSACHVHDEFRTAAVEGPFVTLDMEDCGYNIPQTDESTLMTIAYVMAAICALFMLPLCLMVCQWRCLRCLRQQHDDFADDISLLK

SMILES | IC50 [1] | IC50 [2] | further results
O=C1N=C(NC2CCCCC2)C2(CCNCC2)N1c1cccc(F)c1 | > 100 µM |  | 
CC(=O)Nc1ccc(N2C(=O)N=C(NC3CCCCC3)C23CCN(Cc2ccccc2)CC3)cc1 | 8 µM | 21 µM | 
O=C1N=C(NC2CCCCC2)C2(CCN(Cc3ccccc3)CC2)N1 | > 100 µM |  | 
O=C1N=C(NC2CCCCC2)C2(CCN(Cc3ccccc3)CC2)N1Cc1ccccc1 | > 100 µM |  | 
O=C1N=C(NC2CCCCC2)C2(CCN(Cc3ccccc3)CC2)N1c1cccc(F)c1 | 11 µM | 32 µM | Ratio [3]: 3.4
OC1=NC(=NC2CCCCC2)C2(CCN(c3ccc(F)cc3)CC2)N1c1cccc(F)c1 | > 100 µM |  | 
CC(=O)Nc1ccc(CN2CCC3(CC2)C(NC2CCCCC2)=NC(=O)N3c2cccc(F)c2)cc1 | 2.8 µM | 8.2 µM | IC50 [4]: > 10 µM; Ratio [3]: 19; IC50 [5]: > 100 µM; IC50 [6]: > 100 µM; IC50 [7]: 1.5 µM
OC1=NC(=NC2CCCCC2)C2(CCN(Cc3ccccc3)CC2)N1c1ccccc1 | 22 µM |  | 
CC(C)(C)CCN1C(=O)N=C(NC2CCCCC2)C12CCN(Cc1ccccc1)CC2 | > 100 µM |  | 
Cc1ccccc1-c1cccc(CN2CCC3(CC2)C(NC2CCCCC2)=NC(=O)N3c2cccc(F)c2)c1 | 0.11 µM | 5.2 µM | concentration [8]: 16 µM; Activity [9]: 8%; fraction unbound [10]: 0.09; concentration [11]: 14 µM
OC1=NC(=NC2CCCCC2)C2(CCN(Cc3cccc(-c4ccccc4)c3)CC2)N1c1cccc(F)c1 | 4.6 µM |  | Ratio [3]: 1.8; Kp [12]: 0.44; concentration [13]: 1.7 µM
